From publication PMC10165273, “Itch receptor MRGPRX4 interacts with the receptor activity–modifying proteins” (The Journal of Biological Chemistry, 2023)
“And” between values parts separate entries of the source, which are not always exact repeats. Equal entries are not always repeated. Where two headings read alike, the source gives them in different places.

Target: T1, MRGPRX4 + RAMP1 (Homo sapiens, UniProt Q96LA9)
T1 construct: expressed in transfected cells; host or cells: HEK293T
Assay: IP1 accumulation, MRGPRX4 coexpressed with RAMP1
Assay type: cell-based
Design: potency: unit not given here
Details: for activation at 100 µM / activation at 20 µM / activation at 4 µM / activation at 0.8 µM / activation at […] / activation at 0.032 µM: 2 h; for Emax: Figure 4a bottom, MRGPRX4 alone = 100, read-out: efficacy; for EC50: read-out: potency (converted)
Description: HEK293T cells were transfected with 1 pg/cell of MRGPRX4 DNA, and the amount of DNA was kept constant at 2 pg/cell with pcDNA3.1(+) empty vector, unless otherwise specified. Twenty four hours after transfection, IP1 assay was performed as previously described ([51]). When applicable, cells were treated with 1 μM YM254890 (YM) or different concentrations of U73122 for 1 h prior to addition of agonist or buffer. After incubation for 2 h, HTRF reagents and IP1 calibration standards were added and incubated for 2 h in the dark at room temperature. Time-resolved fluorescence signals were read on the BioTek Synergy NEO-TRF Hybrid multi-mode reader (BioTek Instruments). All data were carried out in three independent experiments with three technical replicate each.
For a homogenous transfection of MRGPRX4, a master mix of MRGPRX4 DNA was made prior to addition of the RAMP DNA. […]
Data reduction, standard calibration, and transformation of HTRF data were performed as previously described ([51]). Normalized IP1 values were calculated relative to the unstimulated mock-transfected cells (set to 0%) and fully stimulated MRGPRX4 (alone if applicable) (set to 100%).

[1] = Figure 4a top, DNA ratio MRGPRX4:RAMP1 1:0.5, individual replicates

T1 sequence (Q96LA9 whole entry): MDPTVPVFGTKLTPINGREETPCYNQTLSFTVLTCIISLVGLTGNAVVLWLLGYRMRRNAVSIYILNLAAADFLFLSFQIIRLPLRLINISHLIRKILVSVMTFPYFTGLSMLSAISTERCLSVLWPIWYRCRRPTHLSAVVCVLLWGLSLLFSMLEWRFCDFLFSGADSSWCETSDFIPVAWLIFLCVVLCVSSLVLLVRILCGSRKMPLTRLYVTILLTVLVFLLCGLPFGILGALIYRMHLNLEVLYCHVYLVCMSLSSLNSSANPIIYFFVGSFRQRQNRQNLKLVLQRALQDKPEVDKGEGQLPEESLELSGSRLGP

SMILES: CC(C)[C@H]1CC[C@H](C(=O)N[C@H](Cc2ccccc2)C(=O)O)CC1 [Nateglinide]
- activation at 100 µM (log [nateglinide] (M) -4, MRGPRX4+RAMP10.5pg 1:0.5, Supplementary Figure 5d, read-out: IP1 accumulation (normalized)): 99.2%
- activation at 20 µM (log [nateglinide] (M) -4.69897, MRGPRX4+RAMP10.5pg 1:0.5, Supplementary Figure 5d, read-out: IP1 accumulation (normalized)): 78.1%
- activation at 20 µM (log [nateglinide] (M) -4.69897, MRGPRX4+RAMP1 0.75pg 1:0.75, Supplementary Figure 5d, read-out: IP1 accumulation (normalized)): 84.8%
- activation at 20 µM (log [nateglinide] (M) -4.69897, MRGPRX4+RAMP1 1pg 1:1, Supplementary Figure 5d, 5g, read-out: IP1 accumulation (normalized)): 72.1%
- activation at 4 µM (log [nateglinide] (M) -5.39794, MRGPRX4+RAMP10.5pg 1:0.5, Supplementary Figure 5d, read-out: IP1 accumulation (normalized)): 49.7%
- activation at 4 µM (log [nateglinide] (M) -5.39794, MRGPRX4+RAMP1 0.75pg 1:0.75, Supplementary Figure 5d, read-out: IP1 accumulation (normalized)): 44.1%
- activation at 4 µM (log [nateglinide] (M) -5.39794, MRGPRX4+RAMP1 1pg 1:1, Supplementary Figure 5d, 5g, read-out: IP1 accumulation (normalized)): 39.2%
- activation at 0.8 µM (log [nateglinide] (M) -6.09691, MRGPRX4+RAMP10.5pg 1:0.5, Supplementary Figure 5d, read-out: IP1 accumulation (normalized)): 18.6%
- activation at 0.8 µM (log [nateglinide] (M) -6.09691, MRGPRX4+RAMP1 0.75pg 1:0.75, Supplementary Figure 5d, read-out: IP1 accumulation (normalized)): 14.6%
- activation at 0.8 µM (log [nateglinide] (M) -6.09691, MRGPRX4+RAMP1 1pg 1:1, Supplementary Figure 5d, 5g, read-out: IP1 accumulation (normalized)): 12.9%
- activation at […] (log [nateglinide] (M) -6.79588, MRGPRX4+RAMP10.5pg 1:0.5, Supplementary Figure 5d, read-out: IP1 accumulation (normalized)): 8.57%
- activation at […] (log [nateglinide] (M) -6.79588, MRGPRX4+RAMP1 0.75pg 1:0.75, Supplementary Figure 5d, read-out: IP1 accumulation (normalized)): 11.2%
- activation at 0.032 µM (log [nateglinide] (M) -7.49485, MRGPRX4+RAMP10.5pg 1:0.5, Supplementary Figure 5d, read-out: IP1 accumulation (normalized)): 7.92%
- activation at 0.032 µM (log [nateglinide] (M) -7.49485, MRGPRX4+RAMP1 0.75pg 1:0.75, Supplementary Figure 5d, read-out: IP1 accumulation (normalized)): 8.7%
- activation at 0.032 µM (log [nateglinide] (M) -7.49485, MRGPRX4+RAMP1 1pg 1:1, Supplementary Figure 5d, 5g, read-out: IP1 accumulation (normalized)): 7.65%
- activation at 100 µM (ratio MRGPRX4:RAMP1 1:0.25, log [Nateglinide] (M) -4, Fig S3a, read-out: IP1 accumulation): 102%
- activation at 20 µM (ratio MRGPRX4:RAMP1 1:0.25, log [Nateglinide] (M) -4.69897, Fig S3a, read-out: IP1 accumulation): 76.7%
- activation at 4 µM (ratio MRGPRX4:RAMP1 1:0.25, log [Nateglinide] (M) -5.39794, Fig S3a, read-out: IP1 accumulation): 42.2%
- activation at 0.8 µM (ratio MRGPRX4:RAMP1 1:0.25, log [Nateglinide] (M) -6.09691, Fig S3a, read-out: IP1 accumulation): 29.4%
- activation at […] (ratio MRGPRX4:RAMP1 1:0.25, log [Nateglinide] (M) -6.79588, Fig S3a, read-out: IP1 accumulation): 26.1%
- activation at 0.032 µM (ratio MRGPRX4:RAMP1 1:0.25, log [Nateglinide] (M) -7.49485, Fig S3a, read-out: IP1 accumulation): 24%
- activation at 100 µM (ratio MRGPRX4:RAMP1 1:1, log [Nateglinide] (M) -4, Fig S3a, read-out: IP1 accumulation): 114%
- activation at 20 µM (ratio MRGPRX4:RAMP1 1:1, log [Nateglinide] (M) -4.69897, Fig S3a, read-out: IP1 accumulation): 87.9%
- activation at 4 µM (ratio MRGPRX4:RAMP1 1:1, log [Nateglinide] (M) -5.39794, Fig S3a, read-out: IP1 accumulation): 43.7%
- activation at 0.8 µM (ratio MRGPRX4:RAMP1 1:1, log [Nateglinide] (M) -6.09691, Fig S3a, read-out: IP1 accumulation): 22.8%
- activation at […] (ratio MRGPRX4:RAMP1 1:1, log [Nateglinide] (M) -6.79588, Fig S3a, read-out: IP1 accumulation): 17.6%
- activation at 0.032 µM (ratio MRGPRX4:RAMP1 1:1, log [Nateglinide] (M) -7.49485, Fig S3a, read-out: IP1 accumulation): 16%
- activation at 100 µM (ratio MRGPRX4:RAMP1 1:2, log [Nateglinide] (M) -4, Fig S3a, read-out: IP1 accumulation): 117%
- activation at 20 µM (ratio MRGPRX4:RAMP1 1:2, log [Nateglinide] (M) -4.69897, Fig S3a, read-out: IP1 accumulation): 93.3%
- activation at 4 µM (ratio MRGPRX4:RAMP1 1:2, log [Nateglinide] (M) -5.39794, Fig S3a, read-out: IP1 accumulation): 44.8%
- activation at 0.8 µM (ratio MRGPRX4:RAMP1 1:2, log [Nateglinide] (M) -6.09691, Fig S3a, read-out: IP1 accumulation): 18.6%
- activation at […] (ratio MRGPRX4:RAMP1 1:2, log [Nateglinide] (M) -6.79588, Fig S3a, read-out: IP1 accumulation): 14.5%
- activation at 0.032 µM (ratio MRGPRX4:RAMP1 1:2, log [Nateglinide] (M) -7.49485, Fig S3a, read-out: IP1 accumulation): 12.5%
- activation at 100 µM (ratio MRGPRX4:RAMP 1:0.5, log [Nateglinide] (M) -4, Fig S3a, read-out: IP1 accumulation): 113%
- activation at 20 µM (ratio MRGPRX4:RAMP 1:0.5, log [Nateglinide] (M) -4.69897, Fig S3a, read-out: IP1 accumulation): 93.7%
- activation at 4 µM (ratio MRGPRX4:RAMP 1:0.5, log [Nateglinide] (M) -5.39794, Fig S3a, read-out: IP1 accumulation): 46.5%
- activation at 0.8 µM (ratio MRGPRX4:RAMP 1:0.5, log [Nateglinide] (M) -6.09691, Fig S3a, read-out: IP1 accumulation): 24.4%
- activation at […] (ratio MRGPRX4:RAMP 1:0.5, log [Nateglinide] (M) -6.79588, Fig S3a, read-out: IP1 accumulation): 18.5%
- activation at 0.032 µM (ratio MRGPRX4:RAMP 1:0.5, log [Nateglinide] (M) -7.49485, Fig S3a, read-out: IP1 accumulation): 18.7%
- Emax (DNA ratio MRGPRX4:RAMP1 1:0.25): 109%
- Emax (DNA ratio MRGPRX4:RAMP1 1:0.5): 115%
- Emax (DNA ratio MRGPRX4:RAMP1 1:0.75): 118%
- Emax (DNA ratio MRGPRX4:RAMP1 1:1): 126%
- EC50 (Figure 4a top, DNA ratio MRGPRX4:RAMP1 1:0.25, individual replicates): 11.1 µM and 9.42 µM and 15.2 µM
- potency [1]: 5.042
- EC50 [1]: 10.5 µM
